# Experimental data from patent US10287255B2, “Compounds as histone deacetylase 6 inhibitors and pharmaceutical compositions comprising the same” (CHONG KUN DANG PHARMACEUTICAL CORP., priority 2014, dated 2019).
# pIC50: −log10 of the molar value.
# Experiments:
# human recombinant HDAC1 = target: T1, human recombinant HDAC1 (Homo sapiens, UniProt Q13547); test: HDAC1 enzyme activity inhibition assay (in vitro, fluorimetric); assay type: biochemical; conditions: human recombinant HDAC1, fluorimetric kit, 30° C. 60 minutes
# T1 construct: purchased Enzo Life Science BML-SE456
# T1 sequence (Q13547 whole entry): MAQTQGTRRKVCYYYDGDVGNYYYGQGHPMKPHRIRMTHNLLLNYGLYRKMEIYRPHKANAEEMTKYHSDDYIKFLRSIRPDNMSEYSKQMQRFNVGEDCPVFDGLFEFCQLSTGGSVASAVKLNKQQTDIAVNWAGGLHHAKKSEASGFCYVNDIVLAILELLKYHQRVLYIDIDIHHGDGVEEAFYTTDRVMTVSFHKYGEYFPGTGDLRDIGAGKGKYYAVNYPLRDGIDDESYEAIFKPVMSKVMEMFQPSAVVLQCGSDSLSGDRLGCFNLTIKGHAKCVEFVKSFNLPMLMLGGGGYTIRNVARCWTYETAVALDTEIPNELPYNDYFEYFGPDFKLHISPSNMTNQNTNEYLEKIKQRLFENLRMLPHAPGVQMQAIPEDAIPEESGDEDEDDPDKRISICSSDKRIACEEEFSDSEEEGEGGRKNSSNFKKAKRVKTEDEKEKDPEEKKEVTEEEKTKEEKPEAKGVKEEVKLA
# Summary of the method: (§1)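 Human recombinant enzyme (0.3 μg for HDAC1) reacted with 10 μM Fluor de Lys-SIRT1 substrate and 5-fold compound dilutions at 30 °C for 60 min, then developer for 30 min. Fluorescence read at Ex 360/Em 460; IC50 calculated. HDAC6 run by the same protocol.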
# human recombinant HDAC6 = target: T2, human recombinant HDAC6 (Homo sapiens, UniProt Q9UBN7); test: HDAC6 enzyme activity inhibition assay (in vitro, fluorimetric); assay type: biochemical; conditions: for HDAC6 selectivity (fold): HDAC6 selectivity over HDAC1; for pIC50: human recombinant HDAC6, fluorimetric kit, same protocol as HDAC1
# T2 construct: purchased Calbiochem 382180
# T2 sequence (Q9UBN7 1-1215): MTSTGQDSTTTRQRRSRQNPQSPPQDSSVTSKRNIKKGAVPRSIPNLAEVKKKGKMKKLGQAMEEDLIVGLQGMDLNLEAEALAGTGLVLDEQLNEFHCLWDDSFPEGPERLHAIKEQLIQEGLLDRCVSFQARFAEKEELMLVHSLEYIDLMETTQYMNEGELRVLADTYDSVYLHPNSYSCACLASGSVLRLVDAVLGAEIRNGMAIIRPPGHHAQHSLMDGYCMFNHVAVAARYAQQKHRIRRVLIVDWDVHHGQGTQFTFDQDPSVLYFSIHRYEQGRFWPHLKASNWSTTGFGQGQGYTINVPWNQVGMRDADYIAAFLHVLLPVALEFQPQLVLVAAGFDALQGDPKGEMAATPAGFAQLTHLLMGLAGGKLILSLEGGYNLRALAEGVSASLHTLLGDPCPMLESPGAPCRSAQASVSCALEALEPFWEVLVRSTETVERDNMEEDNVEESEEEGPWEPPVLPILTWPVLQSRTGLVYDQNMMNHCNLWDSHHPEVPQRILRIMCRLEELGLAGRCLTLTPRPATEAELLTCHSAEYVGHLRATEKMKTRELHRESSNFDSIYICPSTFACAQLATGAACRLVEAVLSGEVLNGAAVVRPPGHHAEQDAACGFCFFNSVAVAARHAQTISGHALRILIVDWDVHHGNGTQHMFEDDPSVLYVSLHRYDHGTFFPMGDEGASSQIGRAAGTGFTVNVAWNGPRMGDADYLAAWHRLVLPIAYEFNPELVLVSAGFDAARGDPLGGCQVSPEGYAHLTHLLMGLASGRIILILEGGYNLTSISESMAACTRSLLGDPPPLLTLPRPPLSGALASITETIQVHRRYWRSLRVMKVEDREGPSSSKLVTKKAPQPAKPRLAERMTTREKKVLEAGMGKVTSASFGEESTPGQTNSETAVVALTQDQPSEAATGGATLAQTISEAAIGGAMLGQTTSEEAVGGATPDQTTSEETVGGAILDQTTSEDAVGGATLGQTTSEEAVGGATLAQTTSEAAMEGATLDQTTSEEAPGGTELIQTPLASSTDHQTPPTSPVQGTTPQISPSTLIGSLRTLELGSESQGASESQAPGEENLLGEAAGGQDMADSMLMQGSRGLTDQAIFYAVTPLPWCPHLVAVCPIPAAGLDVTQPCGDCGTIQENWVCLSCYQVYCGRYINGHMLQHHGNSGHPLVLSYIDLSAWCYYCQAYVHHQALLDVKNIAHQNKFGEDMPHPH
# Summary of the method: as §1
Compound,pIC50 (human recombinant HDAC1),HDAC6 selectivity (fold) (human recombinant HDAC6),pIC50 (human recombinant HDAC6)
"CC(C)C(=O)N1[C@H](C)CN(Cc2ccc(C(=O)NO)cc2)C[C@@H]1C [Compound 296, N-hydroxy-4-(((3R,5S)-4-isobutyryl-3,5-dimethylpiperazin-1-yl)methyl)benzamide]",5.16,34,6.69
"COc1cccc(CNC(=O)N2C[C@@H](C)N(Cc3ccc(C(=O)NO)cc3)[C@@H](C)C2)c1 [Compound 230, (3R,5S)-4-(4-(hydroxycarbamoyl)benzyl)-N-(3-methoxybenzyl)-3,5-dimethylpiperazine-1-carboxamide]",5.62,3,6.16
"C[C@@H]1CN(Cc2ccc(C(=O)NO)cc2)C[C@H](C)N1Cc1cccc(-c2ccncc2)c1 [Compound 345, 4-(((3R,5S)-3,5-dimethyl-4-(3-(pyridin-4-yl)benzyl)piperazin-1-yl)methyl)-N-hydroxybenzamide]",5.26,341,7.80
"C[C@@H]1CN(Cc2ccc(C(=O)NO)cc2)C[C@H](C)N1Cc1cccc(-n2cccc2)c1 [Compound 255, 4-(((3R,5S)-4-(3-(1H-pyrrol-1-yl)benzyl)-3,5-dimethylpiperazin-1-yl)methyl)-N-hydroxybenzamide]",5.07,354,7.62
"C[C@@H]1CN(Cc2ccccc2)C[C@H](C)N1Cc1ccc(C(=O)NO)cc1 [Compound 081, 4-(((2S,6R)-4-benzyl-2,6-dimethylpiperazin-1-yl)methyl)-N-hydroxybenzamide]",4.95,78,6.84
"C[C@@H]1CN(C(=O)Cc2cccc(-c3ccccc3)c2)C[C@H](C)N1Cc1ccc(C(=O)NO)cc1 [Compound 250, 4-(((2S,6R)-4-(2-([1,1′-biphenyl]-3-yl)acetyl)-2,6-dimethylpiperazin-1-yl)methyl)-N-hydroxybenzamide]",5.02,57,6.77
"C[C@@H]1CN(C(=O)NCc2cccc(F)c2)C[C@H](C)N1Cc1ccc(C(=O)NO)cc1 [Compound 231, (3R,5S)-N-(3-fluorobenzyl)-4-(4-(hydroxycarbamoyl)benzyl)-3,5-dimethylpiperazine-1-carboxamide]",5.82,2,6.12
"C[C@@H]1CN(Cc2ccc(S(C)(=O)=O)cc2)C[C@H](C)N1Cc1ccc(C(=O)NO)cc1 [Compound 300, 4-(((2S,6R)-2,6-dimethyl-4-(4-(methylsulfonyl)benzyl)piperazin-1-yl)methyl)-N-hydroxybenzamide]",5.43,7,6.28
"C[C@@H]1CN(Cc2ccc(C(=O)NO)cc2)C[C@H](C)N1C(=O)c1cccc(CN2CCN(C)CC2)c1 [Compound 432, 4-(((3R,5S)-3,5-dimethyl-4-(3-((4-methylpiperazin-1-yl)methyl)benzoyl)piperazin-1-yl)methyl)-N-hydroxybenzamide]",5.47,81,7.38
"C[C@@H]1CN(Cc2ccc(C(=O)NO)cc2)C[C@H](C)N1C(=O)c1ccc(CN2CCCC2)cc1 [Compound 461, 4-(((3R,5S)-3,5-dimethyl-4-(4-(pyrrolidin-1-ylmethyl)benzoyl)piperazin-1-yl)methyl)-N-hydroxybenzamide]",5.38,18,6.62
"C[C@@H]1CN(Cc2ccc(C(=O)NO)cc2)C[C@H](C)N1Cc1cccc(-c2cccnc2)c1 [Compound 344, 4-(((3R,5S)-3,5-dimethyl-4-(3-(pyridin-3-yl)benzyl)piperazin-1-yl)methyl)-N-hydroxybenzamide]",5.24,481,7.92
"C[C@@H]1CN(Cc2ccc(C(=O)NO)cc2)C[C@H](C)N1Cc1cccc(CN2CC(F)(F)C2)c1 [Compound 384, 4-(((3R,5S)-4-(3-((3,3-difluoroazetidin-1-yl)methyl)benzyl)-3,5-dimethylpiperazin-1-yl)methyl)-N-hydroxybenzamide]",< 5.00,>94,6.97
"C[C@@H]1CN(Cc2ccc(-n3cnnc3)cc2)C[C@H](C)N1Cc1ccc(C(=O)NO)cc1 [Compound 304, 4-(((2S,6R)-4-(4-(4H-1,2,4-triazol-4-yl)benzyl)-2,6-dimethylpiperazin-1-yl)methyl)-N-hydroxybenzamide]",5.64,8,6.55
"C[C@@H]1CN(C(=O)c2cccnc2)C[C@H](C)N1Cc1ccc(C(=O)NO)cc1 [Compound 112, 4-(((2S,6R)-2,6-dimethyl-4-nicotinoylpiperazin-1-yl)methyl)-N-hydroxybenzamide]",< 5.00,>65,6.81
"C[C@@H]1CN(Cc2ccc(C(=O)NO)cc2)C[C@H](C)N1C(=O)c1ccc(CN2CCOCC2)cc1 [Compound 458, 4-(((3R,5S)-3,5-dimethyl-4-(4-(morpholinomethyl)benzoyl)piperazin-1-yl)methyl)-N-hydroxybenzamide]",5.21,21,6.54
"C[C@@H]1CN(S(=O)(=O)c2cccnc2)C[C@H](C)N1Cc1ccc(C(=O)NO)cc1 [Compound 113, 4-(((2S,6R)-2,6-dimethyl-4-(pyridin-3-ylsulfonyl)piperazin-1-yl)methyl)-N-hydroxybenzamide]",5.55,27,6.98
"C[C@@H]1CN(Cc2ccc3[nH]c(C(=O)NO)cc3c2)C[C@H](C)N1Cc1ccccc1 [Compound 569, 5-(((3R,5S)-4-benzyl-3,5-dimethylpiperazin-1-yl)methyl)-N-hydroxy-1H-indole-2-carboxamide]",< 5.00,82,6.08
"C[C@@H]1CN(Cc2ccc(C(=O)NO)cc2)C[C@H](C)N1Cc1cccc(F)c1 [Compound 225, 4-(((3R,5S)-4-(3-fluorobenzyl)-3,5-dimethylpiperazin-1-yl)methyl)-N-hydroxybenzamide]",5.72,36,7.28
"C[C@@H]1CN(Cc2cc(F)c(F)cc2F)C[C@H](C)N1Cc1ccc(C(=O)NO)cc1 [Compound 215, 4-(((2S,6R)-2,6-dimethyl-4-(2,4,5-trifluorobenzyl)piperazin-1-yl)methyl)-N-hydroxybenzamide]",< 5.00,2,6.28
"CCCCN(C(=O)N1C[C@@H](C)N(Cc2ccc(C(=O)NO)cc2)[C@@H](C)C1)c1ccccc1 [Compound 198, (3R,5S)-N-butyl-4-(4-(hydroxycarbamoyl)benzyl)-3,5-dimethyl-N-phenylpiperazine-1-carboxamide]",4.91,51,6.62
"C[C@@H]1CN(Cc2ccc(C(=O)NO)cc2)C[C@@H](C)N1C(=O)c1ccco1 [Compound 249, 4-(((3R,5R)-4-(furan-2-carbonyl)-3,5-dimethylpiperazin-1-yl)methyl)-N-hydroxybenzamide]",4.81,130,6.92
"C[C@@H]1CN(C(=O)Nc2ccccc2)C[C@H](C)N1Cc1ccc(C(=O)NO)cc1 [Compound 162, (3R,5S)-4-(4-(hydroxycarbamoyl)benzyl)-3,5-dimethyl-N-phenylpiperazine-1-carboxamide]",6.40,5,7.10
"C[C@@H]1CN(C(=O)NCc2ccccc2)C[C@H](C)N1Cc1ccc(C(=O)NO)cc1 [Compound 168, (3R,5S)-N-benzyl-4-(4-(hydroxycarbamoyl)benzyl)-3,5-dimethylpiperazine-1-carboxamide]",5.66,7,6.50
